Assay: xn = mol fraction of the nth substance listed
Conditions: 100 kPa

`CC[N+](CC)(CC)CC.[Cl-]` + OCCOCCOCCO showed an electrical conductivity (293.15 K, x1 = 0.1667) of 0.16 S/m, a viscosity (293.15 K, x1 = 0.1667) of 80 mPa·s and an electrical conductivity (293.15 K, x1 = 0.25) of 0.194 S/m. For the same molecule, the viscosity (293.15 K, x1 = 0.25) was 117 mPa·s, the electrical conductivity (303.15 K, x1 = 0.1667) was 0.226 S/m and the viscosity (303.15 K, x1 = 0.1667) was 55.9 mPa·s. For the same molecule, the electrical conductivity (303.15 K, x1 = 0.25) was 0.276 S/m, the viscosity (303.15 K, x1 = 0.25) was 77 mPa·s and the electrical conductivity (313.15 K, x1 = 0.1667) was 0.313 S/m. The viscosity (313.15 K, x1 = 0.1667) was 40 mPa·s, the electrical conductivity (313.15 K, x1 = 0.25) was 0.384 S/m and the viscosity (313.15 K, x1 = 0.25) was 52.1 mPa·s. It also gave an electrical conductivity (323.15 K, x1 = 0.1667) of 0.424 S/m, a viscosity (323.15 K, x1 = 0.1667) of 29.2 mPa·s and an electrical conductivity (323.15 K, x1 = 0.25) of 0.524 S/m. It also gave a viscosity (323.15 K, x1 = 0.25) of 36.1 mPa·s, an electrical conductivity (333.15 K, x1 = 0.1667) of 0.564 S/m and a viscosity (333.15 K, x1 = 0.1667) of 21.7 mPa·s. The electrical conductivity (333.15 K, x1 = 0.25) was 0.702 S/m and the viscosity (333.15 K, x1 = 0.25) was 25.6 mPa·s.

Molecule `CCCC[N+](CCCC)(CCCC)CCCC.[Cl-]` + Oc1ccccc1 has an electrical conductivity (293.15 K, x1 = 0.1667) of 0.0802 S/m, a viscosity (293.15 K, x1 = 0.167) of 91.3 mPa·s and an electrical conductivity (303.15 K, x1 = 0.1667) of 0.117 S/m. It also gave a viscosity (303.15 K, x1 = 0.167) of 66.4 mPa·s, an electrical conductivity (313.15 K, x1 = 0.1667) of 0.167 S/m and a viscosity (313.15 K, x1 = 0.167) of 49.2 mPa·s. For the same molecule, the electrical conductivity (323.15 K, x1 = 0.1667) was 0.232 S/m, the electrical conductivity (333.15 K, x1 = 0.1667) was 0.317 S/m and the viscosity (333.15 K, x1 = 0.167) was 28.6 mPa·s.

Source: a compilation of properties of binary mixtures (doi:10.1016/j.molliq.2021.118139)
